Source: the NIST ThermoML archive (doi:10.1016/j.jct.2010.12.020)
Where “and” joins values, the source holds several entries; their conditions need not be identical. Equal values may be shown once. ± gives the expanded uncertainty stated by the source.

Assay: activity coefficient (dimensionless); of the first substance listed, at infinite dilution; xn = mol fraction of the nth substance listed
Conditions: 101 kPa, Liquid, Chromatography, x1 = 0

CCCCCC [hexane] + CCCCCCCC[N+](C)(CCCCCCCC)CCCCCCCC.O=C(O)c1ccccc1[S-]
activity coefficient (303.15 K): 2.07 ± 0.26 | activity coefficient (313.15 K): 1.98 and 1.96 | activity coefficient (323.15 K): 1.92 and 1.87

CC(C)=O [acetone] + CCCCCCCC[N+](C)(CCCCCCCC)CCCCCCCC.O=C(O)c1ccccc1[S-]
activity coefficient (303.15 K): 0.69 and 0.65 | activity coefficient (313.15 K): 0.66 and 0.63 | activity coefficient (323.15 K): 0.64 and 0.61

C1CCCC1 [cyclopentane] + CCCCCCCC[N+](C)(CCCCCCCC)CCCCCCCC.O=C(O)c1ccccc1[S-]
activity coefficient (303.15 K): 1.1 and 1.08 | activity coefficient (313.15 K): 1.07 and 1.05 | activity coefficient (323.15 K): 1.04 and 1

C=CCCCC [hex-1-ene] + CCCCCCCC[N+](C)(CCCCCCCC)CCCCCCCC.O=C(O)c1ccccc1[S-]
activity coefficient (303.15 K): 1.57 and 1.55 | activity coefficient (313.15 K): 1.53 and 1.51 | activity coefficient (323.15 K): 1.51 and 1.46

CCC(C)=O [butanone] + CCCCCCCC[N+](C)(CCCCCCCC)CCCCCCCC.O=C(O)c1ccccc1[S-]
activity coefficient (303.15 K): 0.66 and 0.62 | activity coefficient (313.15 K): 0.64 and 0.61 | activity coefficient (323.15 K): 0.62 and 0.59

C1CCCCCCC1 [cyclooctane] + CCCCCCCC[N+](C)(CCCCCCCC)CCCCCCCC.O=C(O)c1ccccc1[S-]
activity coefficient (303.15 K): 1.57 ± 0.19 | activity coefficient (313.15 K): 1.5 and 1.45 | activity coefficient (323.15 K): 1.44 and 1.37

CCCCCCCCC [nonane] + CCCCCCCC[N+](C)(CCCCCCCC)CCCCCCCC.O=C(O)c1ccccc1[S-]
activity coefficient (303.15 K): 3.21 and 3.11 | activity coefficient (313.15 K): 3.07 and 3.03 | activity coefficient (323.15 K): 2.98 and 2.88

C#CCCCCCC [1-octyne] + CCCCCCCC[N+](C)(CCCCCCCC)CCCCCCCC.O=C(O)c1ccccc1[S-]
activity coefficient (303.15 K): 0.88 and 0.84 | activity coefficient (313.15 K): 0.92 and 0.9 | activity coefficient (323.15 K): 0.94 ± 0.11

C1CCCCC1 [cyclohexane] + CCCCCCCC[N+](C)(CCCCCCCC)CCCCCCCC.O=C(O)c1ccccc1[S-]
activity coefficient (303.15 K): 1.34 and 1.32 | activity coefficient (313.15 K): 1.28 and 1.26 | activity coefficient (323.15 K): 1.23 and 1.19

CCCCCCCC [octane] + CCCCCCCC[N+](C)(CCCCCCCC)CCCCCCCC.O=C(O)c1ccccc1[S-]
activity coefficient (303.15 K): 2.77 and 2.72 | activity coefficient (313.15 K): 2.68 and 2.61 | activity coefficient (323.15 K): 2.55 and 2.47

C1CCCCCC1 [cycloheptane] + CCCCCCCC[N+](C)(CCCCCCCC)CCCCCCCC.O=C(O)c1ccccc1[S-]
activity coefficient (303.15 K): 1.42 and 1.4 | activity coefficient (313.15 K): 1.36 and 1.32 | activity coefficient (323.15 K): 1.31 and 1.25

C=CCCC [1-pentene] + CCCCCCCC[N+](C)(CCCCCCCC)CCCCCCCC.O=C(O)c1ccccc1[S-]
activity coefficient (303.15 K): 1.39 and 1.4 | activity coefficient (313.15 K): 1.36 ± 0.17 | activity coefficient (323.15 K): 1.33 and 1.28

C#CCCC [1-pentyne] + CCCCCCCC[N+](C)(CCCCCCCC)CCCCCCCC.O=C(O)c1ccccc1[S-]
activity coefficient (303.15 K): 0.63 ± 0.08 | activity coefficient (313.15 K): 0.65 ± 0.08 | activity coefficient (323.15 K): 0.67 ± 0.08

C#CCCCC [1-hexyne] + CCCCCCCC[N+](C)(CCCCCCCC)CCCCCCCC.O=C(O)c1ccccc1[S-]
activity coefficient (303.15 K): 0.7 and 0.69 | activity coefficient (313.15 K): 0.72 ± 0.09 | activity coefficient (323.15 K): 0.75 ± 0.09

CCCCC [pentane] + CCCCCCCC[N+](C)(CCCCCCCC)CCCCCCCC.O=C(O)c1ccccc1[S-]
activity coefficient (303.15 K): 1.81 ± 0.22 | activity coefficient (313.15 K): 1.75 ± 0.22 | activity coefficient (323.15 K): 1.7 and 1.65

c1ccccc1 [benzene] + CCCCCCCC[N+](C)(CCCCCCCC)CCCCCCCC.O=C(O)c1ccccc1[S-]
activity coefficient (303.15 K): 0.51 and 0.48 | activity coefficient (313.15 K): 0.5 and 0.48 | activity coefficient (323.15 K): 0.5 and 0.47

C=CCCCCCC [oct-1-ene] + CCCCCCCC[N+](C)(CCCCCCCC)CCCCCCCC.O=C(O)c1ccccc1[S-]
activity coefficient (303.15 K): 2.09 and 2.06 | activity coefficient (313.15 K): 2.06 and 2.02 | activity coefficient (323.15 K): 2 and 1.93

CCCCCCC [heptane] + CCCCCCCC[N+](C)(CCCCCCCC)CCCCCCCC.O=C(O)c1ccccc1[S-]
activity coefficient (303.15 K): 2.37 and 2.28 | activity coefficient (313.15 K): 2.29 and 2.22 | activity coefficient (323.15 K): 2.21 and 2.15

Cc1ccccc1 [toluene] + CCCCCCCC[N+](C)(CCCCCCCC)CCCCCCCC.O=C(O)c1ccccc1[S-]
activity coefficient (303.15 K): 0.62 and 0.59 | activity coefficient (313.15 K): 0.62 and 0.59 | activity coefficient (323.15 K): 0.62 and 0.58
